Laboratory results published in ChEMBL document CHEMBL1201862, “PubChem BioAssay data set” (2004).
Active and inactive are the calls of the source.

What was measured:
[1] = biological target: T1, Histone-lysine N-methyltransferase NSD2 (Homo sapiens, UniProt O96028); format: biochemical
T1 sequence (O96028 whole entry): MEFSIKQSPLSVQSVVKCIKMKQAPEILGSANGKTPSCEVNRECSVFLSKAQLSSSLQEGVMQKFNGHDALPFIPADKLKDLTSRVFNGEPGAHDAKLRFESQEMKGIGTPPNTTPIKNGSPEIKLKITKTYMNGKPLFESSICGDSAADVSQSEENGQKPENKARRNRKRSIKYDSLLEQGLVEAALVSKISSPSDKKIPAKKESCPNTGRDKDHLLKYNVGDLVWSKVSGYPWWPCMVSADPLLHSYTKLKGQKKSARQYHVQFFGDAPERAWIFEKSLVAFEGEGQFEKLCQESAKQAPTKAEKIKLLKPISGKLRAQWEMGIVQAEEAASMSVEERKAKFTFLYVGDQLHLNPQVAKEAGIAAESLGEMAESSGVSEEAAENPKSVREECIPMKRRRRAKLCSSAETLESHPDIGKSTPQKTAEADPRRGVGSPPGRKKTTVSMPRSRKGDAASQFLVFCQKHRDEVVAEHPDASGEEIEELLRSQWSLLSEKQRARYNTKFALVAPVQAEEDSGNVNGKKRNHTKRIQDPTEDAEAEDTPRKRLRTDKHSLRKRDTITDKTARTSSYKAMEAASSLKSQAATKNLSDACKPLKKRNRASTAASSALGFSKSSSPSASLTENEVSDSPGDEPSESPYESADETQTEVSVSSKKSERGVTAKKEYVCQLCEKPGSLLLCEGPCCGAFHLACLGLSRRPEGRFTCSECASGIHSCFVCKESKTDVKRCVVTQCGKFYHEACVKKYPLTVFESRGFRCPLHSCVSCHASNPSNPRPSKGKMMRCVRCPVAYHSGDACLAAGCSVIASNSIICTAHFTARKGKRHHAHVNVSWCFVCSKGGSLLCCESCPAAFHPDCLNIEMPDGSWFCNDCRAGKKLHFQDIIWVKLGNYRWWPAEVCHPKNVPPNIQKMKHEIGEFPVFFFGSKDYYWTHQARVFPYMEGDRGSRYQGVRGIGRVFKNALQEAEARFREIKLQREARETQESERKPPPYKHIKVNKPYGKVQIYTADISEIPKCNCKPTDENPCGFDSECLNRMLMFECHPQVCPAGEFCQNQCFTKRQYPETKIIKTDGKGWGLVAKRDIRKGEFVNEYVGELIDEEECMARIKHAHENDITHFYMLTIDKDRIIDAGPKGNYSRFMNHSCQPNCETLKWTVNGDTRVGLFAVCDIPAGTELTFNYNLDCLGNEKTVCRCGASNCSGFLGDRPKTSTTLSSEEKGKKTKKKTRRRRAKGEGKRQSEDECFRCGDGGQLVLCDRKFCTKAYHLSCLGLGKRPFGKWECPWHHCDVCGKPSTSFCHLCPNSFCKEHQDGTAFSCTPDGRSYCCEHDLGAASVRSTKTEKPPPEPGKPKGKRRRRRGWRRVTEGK

[2] = biological target: T2, Protein RecA (Mycobacterium tuberculosis, UniProt P9WHJ3); test: Fluorescence Cell-Free Homogeneous Dose Retest to Identify Inhibitors of RecA-Intein Splicing Activity. [Related pubchem assays (depositor defined):AID2097, AID2223, AID489010, AID492950]; format: functional
T2 sequence (P9WHJ3 whole entry): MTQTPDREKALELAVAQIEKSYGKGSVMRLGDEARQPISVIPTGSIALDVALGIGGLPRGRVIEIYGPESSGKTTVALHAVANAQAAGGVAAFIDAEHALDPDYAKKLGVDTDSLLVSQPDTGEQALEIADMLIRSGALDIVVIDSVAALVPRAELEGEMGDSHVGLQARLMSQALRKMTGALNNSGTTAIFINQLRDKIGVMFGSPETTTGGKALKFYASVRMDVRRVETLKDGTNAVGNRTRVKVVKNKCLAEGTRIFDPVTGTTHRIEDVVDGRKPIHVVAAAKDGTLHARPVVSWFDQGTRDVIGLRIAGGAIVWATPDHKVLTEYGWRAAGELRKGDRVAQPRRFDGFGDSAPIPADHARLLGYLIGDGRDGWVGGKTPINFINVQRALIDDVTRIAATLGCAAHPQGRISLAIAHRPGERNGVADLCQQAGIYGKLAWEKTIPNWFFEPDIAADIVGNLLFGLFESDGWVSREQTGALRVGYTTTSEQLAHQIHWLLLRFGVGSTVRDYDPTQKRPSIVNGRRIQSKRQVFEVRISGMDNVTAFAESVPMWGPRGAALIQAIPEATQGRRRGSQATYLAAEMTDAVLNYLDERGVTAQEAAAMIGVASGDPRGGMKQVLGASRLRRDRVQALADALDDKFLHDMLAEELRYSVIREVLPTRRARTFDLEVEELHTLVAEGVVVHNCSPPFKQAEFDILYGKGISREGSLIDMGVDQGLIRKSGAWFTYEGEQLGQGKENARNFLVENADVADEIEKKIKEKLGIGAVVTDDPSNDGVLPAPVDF

SMILES	AC50 [1]	EC50 [2]
O=C(NC1(O)C(=O)c2ccccc2C1=O)c1ccc(C(F)(F)F)cc1	3.39 µM (active)	–
Cn1c(=O)[nH]c(=O)c2c1nc([N+](=O)[O-])n2Cc1ccccc1	–	5.87 µM (active)
O=C(NC1(O)C(=O)c2ccccc2C1=O)c1c(Cl)cccc1Cl	3.16 µM (active)	28.6 µM (active)
O=C(COC(=O)c1ccc([N+](=O)[O-])s1)Nc1ncc(C(F)(F)F)cc1Cl	12.5 µM (active)	–
CCN(c1ccccc1)c1cc2ccccc2c(=O)[nH]1	–	> 380 µM (inactive)
